Where “and” joins values, the source holds several entries; their conditions need not be identical. Equal entries are not always repeated.
What was measured:
[1] = mn = molality of the nth substance listed, in mol/kg; conditions: 298.15 K, 101 kPa, Liquid; for mass density: Vibrating tube method; for viscosity: Capillary tube (Ostwald / Ubbelohde) method
[2] = refractive index (Na D-line) (dimensionless); mn = molality of the nth substance listed, in mol/kg; conditions: 298.15 K, 101 kPa, Liquid, Standard Abbe refractometry
[3] = 298.15 K, Liquid
[4] = refractive index (Na D-line) (dimensionless); conditions: 298.15 K; 101.33 kPa; Liquid; Standard Abbe refractometry

C(=NCCN=Cc1ccccn1)c1ccccn1 [N,N'-bis(2-pyridinylmethylene)-1,2-ethanediamine] + CN(C)C=O
[1]
Conditions | mass density
m1 = 0.0401 | 945.31 kg/m3
m1 = 0.0484 | 945.37 kg/m3
m1 = 0.0728 | 946.33 kg/m3
m1 = 0.0941 | 946.67 kg/m3
m1 = 0.1205 | 947.34 kg/m3
m1 = 0.1508 | 948.27 kg/m3
m1 = 0.1553 | 949.12 kg/m3 and 949.25 kg/m3

CCC[n+]1ccn(C)c1.[Br-] [1-methyl-3-propylimidazolium bromide] + CN(C)C=O
Conditions | mass density, [1] [kg/m3] | refractive index, [2] | viscosity, [1] [mPa·s]
m1 = 0.0268 | 945.94 | 1.4289 | 0.88
m1 = 0.0444 | 947.2 | 1.4296 | 0.889
m1 = 0.0628 | 948.49 | 1.4302 | 0.897
m1 = 0.0851 | 950.04 | 1.4307 | 0.905
m1 = 0.103 | 951.26 | 1.4309 | 0.917
m1 = 0.1256 | 952.76 | 1.4312 | 0.923
m1 = 0.1396 | 953.7 | 1.4317 | 0.936
m1 = 0.1656 | 955.41 | 1.4321 | 0.956
m1 = 0.1826 | 956.49 | 1.4328 | 0.966
m1 = 0.2057 | 957.93 | 1.4336 | 0.975

CN(C)C=O [dimethylformamide]
[3]
Conditions | mass density | viscosity [mPa·s]
101 kPa, Vibrating tube method | 943.88 kg/m3 and 943.99 kg/m3 | –
101.33 kPa, Capillary tube (Ostwald / Ubbelohde) method | – | 0.8608

Conditions | mass density [kg/m3]
[3], 101.33 kPa | 943.88

Conditions | refractive index
[4] | 1.4285

CCCCCn1cc[n+](C)c1.[Br-] [1-pentyl-3-methylimidazolium bromide] + CN(C)C=O
Conditions | mass density, [1] [kg/m3] | refractive index, [2] | viscosity, [1] [mPa·s]
m1 = 0.0201 | 945.2 | 1.4291 | 0.877
m1 = 0.0409 | 946.55 | 1.4297 | 0.89
m1 = 0.0618 | 947.88 | 1.4299 | 0.899
m1 = 0.0853 | 949.36 | 1.4309 | 0.912
m1 = 0.1009 | 950.32 | 1.4312 | 0.925
m1 = 0.1186 | 951.39 | 1.4317 | 0.942
m1 = 0.1433 | 952.9 | 1.432 | 0.957
m1 = 0.161 | 953.93 | 1.4323 | 0.965
m1 = 0.1798 | 955.02 | 1.4329 | 0.982
m1 = 0.205 | 956.48 | 1.4333 | 0.991

From the NIST ThermoML archive (doi:10.1021/je2006117)
